This data set can be described thus: Assay for stability in liver microsomes. The data set is classed as in vitro ADME. As to conditions: human liver microsomes. The method, then:
This experiment was intended to investigate the metabolic stability of the test compounds in human liver microsomes. The materials used in the experiment included 10 mM solutions of the test compounds and the control sample, human liver microsomes, and reduced nicotinamide adenine dinucleotide phosphate (NADPH) powder. In the experiment, a 100 mM potassium phosphate buffer was used as the buffer system.
The liver microsome working solution was prepared by diluting the liver microsome stock solution to 0.75 mg/mL using the 100 mM potassium phosphate buffer. Then, 5 μL of the 10 mM stock solution of the test compound was taken, and 195 μL of methanol was added. The mixture was well mixed to prepare a working solution A with a concentration of 0.25 mM.
Subsequently, the working solution A was diluted to 1.5 μM using the liver microsome working solution to prepare a compound-liver microsome mixed solution. Additionally, NADPH powder was dissolved in a 100) mM potassium phosphate buffer to prepare a 6 mM NADPH solution. The compound-liver microsome mixed solution was dispensed into a 96-well plate at 30 μL/well, with labeled time points of 0 min, 30 min, and 60 min. For 0-min samples, 180 μL of acetonitrile containing 100 ng/mL tolbutamide and 15 μL of the NADPH solution were added directly. The 96-well plate and the NADPH solution were then preheated under a 37° C. water bath for 5 min. After the preheating, 15 μL of the NADPH solution was added to each of the 30-min and 60-min sample wells. The plate was gently shaken for mixing and then incubated under the 37° C. water bath for the corresponding time. After the incubation was completed. 180 μL of acetonitrile containing 100 ng/mL tolbutamide was added to each sample well. The plate was sealed with a sealing film, shaken for 10 min (800 rpm/min), and then centrifuged for 15 min (4000 rpm). After the centrifugation, 50 μL of the supernatant was taken and added to a 96-well plate containing 150 μL of deionized water, and then the plate was sealed and shaken for 10 min (800 rpm) for uniform mixing. Subsequently sample analysis was performed using liquid chromatography-tandem mass spectrometry (LC-MS/MS).
The elimination rate constant and clearance rate of the test compound in liver microsomes were calculated using the following formulas: Remaining rate (%)=(peak area ratio of the compound to internal standard at any time point/peak area ratio of the compound to internal standard at 0 min)×100%,^4. T1/2=0.693/ke, where ke is the elimination rate constant and T1/2 is the half-life. Liver microsome intrinsic clearance rate (CLint(mic))=0.693/(T1/2× microsome protein concentration (mg/mL)). Liver intrinsic clearance rate (CLint(liver))=CLint(mic)×microsome protein-to-liver weight ratio (mg/g)×liver-to-body weight ratio (g/kg). In the formulas, CLint(mic) is the liver microsome intrinsic clearance rate, CLint(liver) is the liver intrinsic clearance rate, and CL(liver) is the liver clearance rate. For humans, the microsome protein-to-liver weight ratio was 45 mg/g, and the liver-to-body weight ratio was 20.7 g/kg.
For orientation: Liver microsomes are vesicles of endoplasmic reticulum, rich in cytochrome P450 enzymes.

In general, half-life refers to the time in which the quantity being followed falls by half. Read a low half-life as fast loss. For orientation: CLint scaled means a measure of how fast metabolising enzymes remove a compound, apart from limits set by blood flow. Higher therefore signals faster metabolism. As for `CCn1c(-c2cc(C#CCN3CCCN(C)CC3)cnc2[C@H](C)OC)c2c3cc(ccc31)-c1csc(n1)C[C@H](NC(=O)[C@H]1[C@H](C)[C@@H]1C)C(=O)N1CCC[C@H](N1)C(=O)OCC(C)(C)C2` (atropisomer, axis not shown; (Ra)) [Compound Z802, (1r,2R,3S)—N-((6^3S,4S,Z)-1^2-(5-(3-(4-methyl-1,4-diaza-1-yl)prop-1-yn-1-yl)-(Ra)-2-((S)-1-methoxyethyl)pyridin-3-yl)-1^1-ethyl-10,10-dimethyl-5,7-dioxo-6^1,6^2,6^3,6^4,6^5,6^6-hexahydro-1^1H-8-oxa-2(4,2)-thiazola-1(5,3)-indola-6(1,3)-pyridazinacycloundecaphane-4-yl)-2,3-dimethylcyclopropane-1-carboxamide], for the setting “NADPH, 37° C., 0/30/60 min”, the half-life at 1 µM was found to be 98.7 min. Besides, the CLint scaled at 1 µM (liver intrinsic clearance rate) was 16.2 mL/min/kg.

Regarding `CCn1c(-c2cc(C#CCN3CCC(C(F)(F)F)CC3)cnc2[C@H](C)OC)c2c3cc(ccc31)-c1csc(n1)C[C@H](NC(=O)[C@H]1[C@H](C)[C@@H]1C)C(=O)N1CCC[C@H](N1)C(=O)OCC(C)(C)C2` (atropisomer, axis not shown; (Ra)) [Compound Z778], the half-life at 1 µM (NADPH, 37° C., 0/30/60 min) is 50.3 min. Where the note is “liver intrinsic clearance rate”, this molecule gave a CLint scaled at 1 µM of 31.9 mL/min/kg.

Take `CCn1c(-c2cc(C#CCN3CCCOCC3)cnc2C(C)C)c2c3cc(ccc31)-c1csc(n1)C[C@H](NC(=O)[C@H]1[C@H](C)[C@@H]1C)C(=O)N1CCC[C@H](N1)C(=O)OCC(C)(C)C2` (atropisomer, axis not shown; (Sa)) [Compound Z811-2, (1r,2R,3S)—N-((6^3S,4S,Z)—(Sa)-1-(5-(3-(1,4-oxazepan-4-yl)prop-1-yn-1-yl)-2-isopropylpyridin-3-yl)-1^1-ethyl-10,10-dimethyl-5,7-dioxo-6^1,6^2,6^3,6^4,6^5,6^6-hexahydro-1^1H-8-oxa-2(4,2)-thiazola-1(5,3)-indola-6(1,3)-pyridazinacycloundecaphane-4-yl)-2,3-dimethylcyclopropane-1-carboxamide]: the “T1/2” value (NADPH, 37° C., 0/30/60 min) came to 38.9 min. Further, under “liver intrinsic clearance rate”, the “CLint(liver)” value is reported as 41.2 mL/min/kg.

Turning to `CCn1c(-c2cc(C#CCN3CCS(=O)(=O)CC3)cnc2[C@H](C)OC)c2c3cc(ccc31)-c1csc(n1)C[C@H](Nc1nnc3cc(C)ccn13)C(=O)N1CCC[C@H](N1)C(=O)OCC(C)(C)C2` (atropisomer, axis not shown; (Ra)) [Compound Z911, (6^3S,4S,Z)—(Ra)-1^2-(5-(3-(1,1-dioxidothiomorpholino)prop-1-yn-1-yl)-2-((S)-1-methoxyethyl)pyridin-3-yl)-1^1-ethyl-10,10-dimethyl-4-((7-methyl-[1,2,4]triazolo[4,3-a]pyridin-3-yl)amino)-6^1,6^2,6^3,6^4,6^5,6^6-hexahydro-1^1H-8-oxa-2(4,2)-thiazola-1(5,3)-indola-6(1.3)-pyridazinacycloundecaphane-5,7-dione], the half-life at 1 µM (NADPH, 37° C., 0/30/60 min) came to 36 min. For the setting “liver intrinsic clearance rate”, the CLint scaled at 1 µM worked out at 44.5 mL/min/kg.

Regarding `CCO[C@@H](C)c1ncc(N2CCN(CCS(C)(=O)=O)CC2)cc1-c1c2c3cc(ccc3n1CC)-c1csc(n1)C[C@H](NC(=O)[C@H]1[C@H](C)[C@@H]1C)C(=O)N1CCC[C@H](N1)C(=O)OCC1(CC1)C2` (single isomer, unassigned) [Compound Z378-1], the half-life at 1 µM (NADPH, 37° C., 0/30/60 min) worked out at 64.2 min. Moreover, where the note is “liver intrinsic clearance rate”, the intrinsic metabolic clearance (CLint scaled) at 1 µM was 25 mL/min/kg.

`CCn1c(-c2cc(N3CCN4CC5(CC5)OC[C@@H]4C3)cnc2[C@H](C)OC)c2c3cc(ccc31)-c1csc(n1)C[C@H](NC(=O)[C@H]1[C@H](C)[C@@H]1C)C(=O)N1CCC[C@H](N1)C(=O)OCC1(CC1)C2` (atropisomer, axis not shown; (Ra)) [Compound Z13]: the half-life at 1 µM (NADPH, 37° C., 0/30/60 min) turned out to be 36.7 min. Also, the intrinsic metabolic clearance (CLint scaled) at 1 µM (liver intrinsic clearance rate) was 43.7 mL/min/kg.

As to `CCn1c(-c2cc(C#CCN3CCS(=O)(=O)CC3)cnc2[C@H](C)OC)c2c3cc(ccc31)-c1csc(n1)C[C@H](NC(=O)[C@H]1[C@H](C)[C@@H]1C)C(=O)N1CCC[C@H](N1)C(=O)OCC(C)(C)C2` (atropisomer, axis not shown; (Ra)) [Compound Z838, (1r,2R,3S)—N-((6^3S,4S,Z)—(Ra)-1^2-(5-(3-(1,1-dioxidothiomorpholino)prop-1-yn-1-yl)-2-((S)-1-methoxyethyl)pyridin-3-yl)-1^1-ethyl-10,10-dimethyl-5,7-dioxo-6^1,6^2,6^3,6^4,6^5,6^6-hexahydro-1^1H-8-oxa-2(4,2)-thiazola-1(5,3)-indola-6(1,3)-pyridazinacycloundecaphane-4-yl)-2,3-dimethylcyclopropane-1-carboxamide], the half-life at 1 µM (NADPH, 37° C., 0/30/60 min) was found to be 25 min. The same molecule returned a CLint scaled at 1 µM (liver intrinsic clearance rate) of 64.2 mL/min/kg.

`CCn1c(-c2cc(N3CCN(CCS(C)(=O)=O)CC3)cnc2[C@H](C)OC)c2c3cc(ccc31)-c1csc(n1)C[C@H](NC(=O)[C@H]1[C@H](C)[C@@H]1C)C(=O)N1CCC[C@H](N1)C(=O)OCC1(CC1)C2` (single isomer, unassigned) [Compound Z367] displayed a half-life at 1 µM (NADPH, 37° C., 0/30/60 min) of 48.2 min. The molecule also had a CLint scaled at 1 µM (liver intrinsic clearance rate) of 33.2 mL/min/kg.
